Assay results: patent US20080051419A1, “AMINE DERIVATIVES USEFUL AS ANTICANCER AGENTS” (PFIZER INC., priority 2006, published 2008)
Like-named read-outs stand apart in the source and are kept apart here.

Columns and labels:
[1] = molecular target: T1, PKA, catalytic subunit, recombinant (Homo sapiens, UniProt P17612); experiment: PKA IMAP Kinase Assay; assay type: biochemical; details: for Selectivity Ratio (PKA/Akt): PKA IC50 divided by Akt IC50; for IC50: Table 6, selectivity study
T1 construct: purchased Upstate 14-440
Procedure: The PKA Kinase assay is used to measure the selectivity of the compounds of formula I for PKA kinase as discussed below. The PKA activity of the compounds of formula I was determined using the PKA IMAP® Kinase Assay (G7096A).
Materials: • 1) Kinase Reaction Buffer (RB):—10 mM Tris-HCl, pH 7.5, 10 mM MgCl2, 0.1 mM EGTA, 0.01% Triton-X 100 (Sigma #X-100); 1 mM DTT (N.E. Biolabs #B7705S) added fresh • 2) ATP (Sigma #5394) 10 mM stock in H2O, −20° C. • 3) 20 μM working stock TAMRA Kemptide (TK. Molecular Devices #R7332): [N-Term]TMRS-Leu-Arg-Arg-Ala-Ser-Leu-Gly-OH[C-Term] • 4) PKA, catalytic subunit, recombinant (Upstate #14-440). 5 ug/25 ul lot 22361AU • 5) DMSO (Baker #9224-01) • 6) IMAP® Progressive Express Screening Kit for IPP (Molecular Devices #R8124) Includes IMAP® Progressive Beads and Binding Buffer • 7) 96-well ½ area plates, black polystyrene, Costar #3694 • 8) 96-well round bottom polypropylene plates, Costar #9667
NOTE: Protect all Tamra-Containing Reagents from Light.
• 1) Prepare the 1× Reaction Buffer (RB) by fresh addition of DTT to 1 mM • 2) For single point testing, make up compound dilution plate as follows: “96 well plates; Row Empty: empty; 84 cmpds” are added to the remaining wells at […]. • 3) For 150 determination: To column 2 of polypropylene plate add 100 ul 100% DMSO; to all other wells add 60 ul 100% DMSO. • 4) Pipet 2 ul 10 mM stock compound to column 2; mix well • 5) Serially dilute 1:3 across from column 2-11, transferring 30 ul to next well and mixing well. • 6) Leave column 12 for zero compound (control signal) • 7) For Single Point testing (10 uM final) add 1 ul 10 mM compound to 100 ul DMSO; mix; transfer 5 ul to 120 ul RB; mix; transfer 5 ul to Assay Plate • 8) For 150 determination: Make up compound RB dilution plate: 60 μl/well RB in 96-well polypropylene round bottom plate. • 9) Transfer compounds to assay plate as follows: Mix DMSO dilutions; transfer 15 μl to 60 μl RB; transfer 5 μl/well to assay plates (single points, triplicate plates), delivering carefully to the bottom of the well; repeat for each dilution up to 10 μM. • 10) To run PKA Reactions: Make up ATP/KT solution; 4 uM ATP, 200 nM KT ([…], 100 nM KTfinal) • 11) Pipet 10 μl KT/ATP to wells containing compound. • 12) Make up protein solution in RB and determine the protein concentration. • 13) Deliver 5 μl protein solution to all wells except A1-H1, delivering to the upper region of the side of the well; Add 5 μl RB to A1-H1 (these are the 0 protein background controls) • 14) Gently tap the plate to ensure all volumes get to the bottom. Cover with foil lid. • 15) Incubate RT on bench top 30 minutes. • 16) Add 60 μl IMAP® beads in IMAP® Progressive binding buffer (100% A) diluted 1:1000 • 17) Read on VICTOR™ plate reader (protocol LissieTAMRA2) with the following settings: CW lamp filter 544 nm; emission filter 615 nm. Some adjustments may be made to the plate reader protocol depending on the reader and available filters. • 18) Use XLDA to calculate IC50s.

Akt1 = molecular target: T2, Akt1 (Homo sapiens, UniProt P31749, S473D); experiment: Akt1 kinase assay, fluorescence polarization (IMAP); assay type: biochemical
T2 construct: The version of Akt used in these studies lacks the pleckstrin homology (PH) domain
T2 sequence (P31749 118-480 S473D limits assumed, species assumed): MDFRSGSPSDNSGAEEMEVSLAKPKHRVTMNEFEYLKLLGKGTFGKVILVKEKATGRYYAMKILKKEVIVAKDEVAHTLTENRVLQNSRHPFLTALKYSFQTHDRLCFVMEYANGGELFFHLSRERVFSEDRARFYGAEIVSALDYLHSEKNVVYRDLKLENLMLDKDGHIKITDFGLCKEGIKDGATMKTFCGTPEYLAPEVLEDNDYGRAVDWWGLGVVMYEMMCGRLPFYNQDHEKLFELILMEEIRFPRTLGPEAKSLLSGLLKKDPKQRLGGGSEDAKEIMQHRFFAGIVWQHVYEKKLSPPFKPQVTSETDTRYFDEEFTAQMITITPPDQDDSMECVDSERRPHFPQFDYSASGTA
Procedure, shortened: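 His-tagged Akt1 lacking the PH domain, Thr308-prephosphorylated, 1.5 ng per reaction, with 4 μM ATP and 40 nM TAMRA-Crosstide (solution concentrations) in Tris pH 7.5/MgCl2/DTT buffer. Incubated 30 min at ambient temperature; IMAP fluorescence polarization read (544/615 nm). IC50 after subtraction of no-enzyme background.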

[2] = Table 6, selectivity study, read-out: Akt Kinase Activity
[3] = Table 1, concentration bins, read-out: Concentration Range at which exemplary compounds of formula I inhibit Akt kinase activity

Row | SMILES | Selectivity Ratio (PKA/Akt) [1] | IC50 [1] | IC50 (Akt1; [2]) | IC50 (Akt1; [3]) | IC50 (Akt1; Table 3, read-out: Avg Akt kinase, μM (50% inhibition)) | IC50 (Akt1; average Akt kinase activity (IC50), read-out: Avg Akt kinase, μM (50% inhibition))
1 | Cc1c[nH]c2ncnc(N3CCC(N)(CNc4ccc(Cl)cc4)C3)c12 (stereo not shown) [Example 200, 3-(4-chloro(phenylamino)methyl)-1-(5-methyl-7H-pyrrolo[2,3-d]pyrimidin-4-yl)pyrrolidin-3-amine] | 2.36 | 0.279 µM | 0.118 µM |  |  | 
2 | Cc1c[nH]c2ncnc(N3CCC(N)(CNc4ccccc4)C3)c12 (stereo not shown) [Example 199, 3-((phenylamino)methyl)-1-(5-methyl-7H-pyrrolo[2,3-d]pyrimidin-4-yl)pyrrolidin-3-amine] | 15.93 | 2.58 µM | 0.162 µM |  |  | 
3 | Cc1c[nH]c2ncnc(N3CCC(N)(CNc4ccc(Cl)cc4)CC3)c12 [BB, 4-(4-chloro(phenylamino)methyl)-1-(5-methyl-7H-pyrrolo[2,3-d]pyrimidin-4-yl)piperidin-4-amine, reference compound] | 0.57 | 0.0263 µM | 0.0459 µM |  |  | 
4 | N#Cc1c[nH]c2ncnc(N3CCC(N)(CNc4cccc5c4CCCC5)C3)c12 (stereo not shown) [Example 38, 4-{3-amino-3-[(5,6,7,8-tetrahydronaphthalen-1-ylamino)methyl]pyrrolidin-1-yl}-7H-pyrrolo[2,3-d]pyrimidine-5-carbonitrile] |  |  |  | 0.00251 to 0.01 µM | 0.00371 µM | 
5 | N#Cc1c[nH]c2ncnc(N3CC[C@](N)(CNC(=O)c4ccccc4)C3)c12 [Example 111, N-{[(3S)-3-amino-1-(5-cyano-7H-pyrrolo[2,3-d]pyrimidin-4-yl)pyrrolidin-3-yl]methyl}benzamide] |  |  |  | 0.0101 to 0.1 µM |  | 0.0265 µM
